Results reported in publication PMC7525318, “Identification of Six Flavonoids as Novel Cellular Antioxidants and Their Structure-Activity Relationship” (Oxidative Medicine and Cellular Longevity, 2020).

What was measured:
[1] = DPPH radical scavenging activity; details: 0.1 mM DPPH in methanol, 37°C, 30 min
Experimental: This assay was conducted as previously described by Wen et al. with some modifications. DPPH was freshly prepared in methanol at a concentration of 0.1 mM. The solution (20 μL) containing the tested compounds with different concentrations was added into the DPPH solution (180 μL) in the 96-well plates. […] The IC50 value was calculated on the scavenging activity against DPPH radical.

HepG2 cells [2] = assay: Cellular antioxidant activity (CAA) assay; assay type: cell-based; details: DCFH-DA 25 μM, ABAP 600 μM
Experimental: The CAA assay was tested as described previously. 6 × 10^4 cells/well of HepG2 cells were seeded at a 96-well microplate with 100 μL of growth medium/well. […] Then, the cells were washed with PBS and treated with 100 μL of 600 μM ABAP (dissolved in HBSS), and the 96-well microplate was immediately placed into an Infinite SpectraMax i3x Multi-Mode Detection plate-reader at 37°C. […]

[3] = system: superoxide dismutase (SOD); assay: Intracellular SOD activity in ABAP-treated HepG2 cells; assay type: cell-based; details: then ABAP
Experimental: (§1) HepG2 cells were seeded (1 × 10^6 cells/well) in six-well plates. After incubation for 24 h, the cells were pretreated with different concentration samples. Medium was washed by PBS and treated with 600 μM ABAP. The cells were collected and treated with cell lysis buffer (20 mM Tris at pH 7.5, 150 mM NaCl and 1% Triton X-100) at 4°C. The lysed cells were used to measure the intracellular activities of SOD, CAT, and GSH-Px by kits according to the manufacturer instructions (Wen 2015). Cells without sample and ABAP treatment were used as positive control (PC), while cells treated with ABAP but not sample were used as negative control (NC).

catalase (CAT) = assay: Intracellular CAT activity in ABAP-treated HepG2 cells; assay type: cell-based; details: for CAT activity of PC value: % of PC value; for increase of CAT activity: HepG2, pretreatment before ABAP
Experimental: as §1

[4] = system: glutathione peroxidase (GSH-Px); assay: Intracellular GSH-Px activity in ABAP-treated HepG2 cells; assay type: cell-based; details: for GSH-Px activity of PC value: % of PC value; for increase of GSH-Px activity: HepG2, pretreatment before ABAP
Experimental: as §1

HepG2 cells [5] = assay: Cytotoxicity assay (CCK-8); assay type: cell-based
Experimental: The cytotoxicity and antiproliferative activity assays were performed by using the CCK-8 assay kit. Briefly, HepG2 cells were cultured at a density of 4 × 10^4 cells/well or 2.5 × 10^4 cells/well in a 96-well microplate with growth medium. After incubation at 37°C, the growth medium is treated with 100 μL of growth medium containing different concentrations of tested compounds for 24 h or 72 h. The wells having growth medium without the tested compound served as control. Then, the cells were incubated with 10 μL/well CCK-8 solutions for 2 h at 37°C. The absorbance values of each well were measured at 450 nm using a microplate reader (SpectraMax i3x, ForteBio Analytics Co., Ltd., USA). The cytotoxic activity and antiproliferative effects of the tested compound was calculated as(1) Cytotoxicity %=1−As/Ac×100%, (2) Cell proliferation %=As/Ac×100%, where As is the absorbance of the well with compound; Ac is the absorbance of control.

[6] = Oxygen radical antioxidant capacity (ORAC) assay; details: Trolox equivalents; AAPH, fluorescein
Experimental: The ORAC assay was evaluated as previously described by Cao et al. with some modifications. 50 μL of samples or Trolox with different concentrations and the fluorescein solution was added to a 96-well microplate, which was incubated at 37°C for 10 min. […] The ORAC values were calculated by the regression equation between the Trolox concentration and the net area under the curve (expressed as μmol Trolox eq/μmol sample).

[7] = HepG2, pretreated at a higher concentration
[8] = HepG2, pretreated with 10 μM, then ABAP
[9] = HepG2, pretreated with 20 μM, then ABAP
[10] = HepG2, pretreated with 30 μM, then ABAP
[11] = HepG2, first of three concentrations (not given)
[12] = HepG2, second of three concentrations (not given)
[13] = HepG2, third of three concentrations (not given)

| IC50 [1] [µM] | EC50 (HepG2 cells [2]; Homo sapiens) [µM] | SMILES | SOD activity compared to NC cells [3, 7] | increase of CAT activity (catalase (CAT)) | increase of GSH-Px activity [4] | cytotoxicity (HepG2 cells [5]; range of 10-160 μM) | ORAC values [6] [μmol TE/μmol] | other results |
| --- | --- | --- | --- | --- | --- | --- | --- | --- |
| 71.7 | 45.1 ± 2.12 | O=c1c(O[C@@H]2O[C@@H](CO)[C@H](O)[C@H]2O)c(-c2ccc(O)c(O)c2)oc2cc(O)cc(O)c12 [compound 10, Avicularin] | significant increase | dose-dependent manner | dose-dependent manner | no significant effects | – | SOD activity compared to NC cells ([3]; HepG2, pretreated with 10 μM): insignificant increase; CAT activity of PC value (catalase (CAT); [8]): 51.90 ± 3.21%; CAT activity of PC value (catalase (CAT); [9]): 68.95 ± 4.22%; CAT activity of PC value (catalase (CAT); [10]): 81.82 ± 4.25%; GSH-Px activity of PC value [4, 8]: 54.37 ± 3.05%; GSH-Px activity of PC value [4, 9]: 68.21 ± 4.25%; GSH-Px activity of PC value [4, 10]: 81.82 ± 5.52% |
| > 200 | 139 ± 5.21 | O=c1cc(-c2ccc(O)c(O)c2)oc2cc(O)c([C@@H]3O[C@H](CO)[C@@H](O)[C@H](O)[C@H]3O)c(O)c12 [compound 32, Isoorientin] | significant increase | dose-dependent manner | dose-dependent manner | no significant effects | – | SOD activity compared to NC cells ([3]; HepG2, pretreated with 40 μM): insignificant increase; CAT activity of PC value (catalase (CAT); [11]): 44.93 ± 2.23%; CAT activity of PC value (catalase (CAT); [12]): 52.68 ± 3.42%; CAT activity of PC value (catalase (CAT); [13]): 68.35 ± 3.72%; GSH-Px activity of PC value [4, 11]: 47.79 ± 3.28%; GSH-Px activity of PC value [4, 12]: 55.99 ± 3.57%; GSH-Px activity of PC value [4, 13]: 71.20 ± 4.28% |
| 25.2 ± 0.62 | > 200 | O=c1c(O)c(-c2ccc(O)c(O)c2)oc2cc(O)ccc12 [compound 35, Fisetin] | – | – | – | – | 5.36 ± 0.21 | – |
| 21.3 ± 1.33 | 26.7 ± 1.04 | O=c1c(O)c(-c2cc(O)c(O)c(O)c2)oc2cc(O)cc(O)c12 [compound 18, Myricetin] | – | – | – | – | 6.64 ± 0.03 | – |
| 19.1 ± 0.62 | 25.91 ± 0.25 | O=C(O[C@@H]1Cc2c(O)cc(O)cc2O[C@@H]1c1cc(O)c(O)c(O)c1)c1cc(O)c(O)c(O)c1 [compound 60, Epigallocatechin gallate] | – | – | – | – | 6.02 ± 0.14 | – |

| SMILES | IC50 [1] [µM] | EC50 (HepG2 cells [2]; Homo sapiens) [µM] | SOD activity compared to NC cells [3, 7] | increase of CAT activity (catalase (CAT)) | increase of GSH-Px activity [4] | cytotoxicity (HepG2 cells [5]; range of 10-160 μM) | ORAC values [6] [μmol TE/μmol] | other results |
| --- | --- | --- | --- | --- | --- | --- | --- | --- |
| O=c1c(O)c(-c2ccc(O)cc2)oc2c(O)c(O)cc(O)c12 [compound 8, Herbacetin] | > 200 | 27.1 ± 2.47 | significant increase | dose-dependent manner | dose-dependent manner | no significant effects | 5.05 ± 0.05 | SOD activity compared to NC cells ([3]; HepG2, pretreated with 15 μM): insignificant increase; CAT activity of PC value (catalase (CAT); [11]): 50.86 ± 2.23%; CAT activity of PC value (catalase (CAT); [12]): 67.01 ± 5.32%; CAT activity of PC value (catalase (CAT); [13]): 80.86 ± 5.21%; GSH-Px activity of PC value [4, 11]: 54.02 ± 3.02%; GSH-Px activity of PC value [4, 12]: 63.46 ± 2.51%; GSH-Px activity of PC value [4, 13]: 82.02 ± 5.35% |
| O=c1c(O)c(-c2ccc(O)cc2)oc2cc(OC3O[C@H](CO)[C@@H](O)[C@H](O)[C@H]3O)cc(O)c12 (stereo partly drawn) [compound 13, Kaempferol-7-O-glucopyranoside] | > 200 | 57.8 ± 3.12 | significant increase | dose-dependent manner | dose-dependent manner | no significant effects | – | SOD activity compared to NC cells ([3]; HepG2, pretreated with 20 μM): insignificant increase; cytotoxicity (HepG2 cells [5]; at higher concentration): slight cytotoxicity |
| O=c1cc(-c2ccc(O)cc2)oc2c([C@@H]3O[C@H](CO)[C@@H](O)[C@H](O)[C@H]3O)c(O)cc(O)c12 [compound 30, Vitexin] | > 200 | > 200 | – | – | – | – | 6.80 ± 0.42 | – |
| COc1cc(-c2[o+]c3cc(O)cc(O)c3cc2O[C@@H]2O[C@H](CO)[C@@H](O)[C@H](O)[C@H]2O)cc(OC)c1O.[Cl-] [compound 56, Oenin chloride] | > 200 | – | – | – | – | – | 4.78 ± 0.15 | EC50 (HepG2 cells [2]): > 200 µM |
